From ChEMBL document CHEMBL1201862, “PubChem BioAssay data set” (2004)
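All cell lines were grown in 96-well plates and treated with compound for 48 hours. GI50: concentration for 50% inhibition of growth.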 Active and inactive are the calls of the source. No stated cut-off is given here; in the data, active = GI50 up to about 1.1 µM and inactive = higher.

Key:
Test in all cases: DTP human tumour cell line panel, 48 h
SR = tested on: SR
HT-29 = tested on: HT-29
UACC-257 = tested on: UACC-257
SK-MEL-28 = tested on: SK-MEL-28
SK-MEL-5 = tested on: SK-MEL-5
COLO 205 = tested on: COLO 205
OVCAR-4 = tested on: OVCAR-4
RXF 393 = tested on: RXF 393
KM12 = tested on: KM12
Malme-3M = tested on: Malme-3M
HOP-92 = tested on: HOP-92
MOLT-4 = tested on: MOLT-4
IGROV-1 = tested on: IGROV-1
SW-620 = tested on: SW-620
TK-10 = tested on: TK-10
HCT-116 = tested on: HCT-116

Measured: GI50

N#CCN1C(=O)c2cccc3cc([N+](=O)[O-])cc(c23)C1=O
inactive: SR 5.69 µM | HT-29 41.8 µM | UACC-257 24.3 µM | SK-MEL-28 35.2 µM | SK-MEL-5 43.1 µM | COLO 205 35.3 µM | OVCAR-4 45.4 µM | RXF 393 28.4 µM | KM12 32 µM | Malme-3M 33.6 µM | HOP-92 99.1 µM | MOLT-4 26.4 µM | IGROV-1 42.9 µM | SW-620 36.5 µM | TK-10 36.4 µM | HCT-116 32.2 µM

CN/N=C(/c1nc2ccc([N+](=O)[O-])cc2nc1O)C(O)c1ccc(C(O)/C(=N\NC)c2nc3ccc([N+](=O)[O-])cc3nc2O)cc1 (stereo unspecified)
inactive: HT-29 > 100 µM | UACC-257 52.6 µM | SK-MEL-28 > 100 µM | SK-MEL-5 > 100 µM | COLO 205 64.9 µM | RXF 393 > 100 µM | KM12 > 100 µM | Malme-3M > 100 µM | HOP-92 > 100 µM | MOLT-4 48.2 µM | IGROV-1 > 100 µM | SW-620 82.8 µM | TK-10 > 100 µM | HCT-116 > 100 µM

COc1ccc(NC(=O)C/C(C)=N\N=C(N)N)c([N+](=O)[O-])c1
inactive: SR 23.3 µM | HT-29 > 100 µM | UACC-257 > 100 µM | SK-MEL-28 > 100 µM | SK-MEL-5 > 100 µM | COLO 205 > 100 µM | OVCAR-4 > 100 µM | RXF 393 > 100 µM | KM12 > 100 µM | Malme-3M > 100 µM | HOP-92 > 100 µM | MOLT-4 > 100 µM | IGROV-1 > 100 µM | TK-10 > 100 µM | HCT-116 > 100 µM

CC(C)(C)C1CCC(O)(c2ccccc2)CC1 (stereo unspecified)
inactive: SR 33.4 µM | HT-29 74.3 µM | UACC-257 54.6 µM | SK-MEL-28 > 100 µM | SK-MEL-5 38.3 µM | COLO 205 > 100 µM | RXF 393 50.7 µM | KM12 > 100 µM | Malme-3M > 100 µM | MOLT-4 59.8 µM | IGROV-1 > 100 µM | SW-620 > 100 µM | TK-10 > 100 µM | HCT-116 96.2 µM

C/C(=N\NS(=O)(=O)c1ccc(C)cc1)c1c(O)cc(C)oc1=O
inactive: SR > 100 µM | HT-29 > 100 µM | UACC-257 > 100 µM | SK-MEL-28 > 100 µM | SK-MEL-5 > 100 µM | OVCAR-4 29.1 µM | KM12 > 100 µM | Malme-3M > 100 µM | HOP-92 > 100 µM | MOLT-4 > 100 µM | IGROV-1 > 100 µM | SW-620 > 100 µM | TK-10 > 100 µM | HCT-116 > 100 µM

O=C(/C=C/c1ccccc1F)c1ccc([N+](=O)[O-])cc1
inactive: HT-29 9.44 µM | SK-MEL-28 18.4 µM | COLO 205 35.2 µM | OVCAR-4 25.3 µM | RXF 393 19.5 µM | Malme-3M 27.8 µM | HOP-92 16.3 µM | MOLT-4 2.07 µM | IGROV-1 24.3 µM | SW-620 26.6 µM | TK-10 23.9 µM

COC(=O)C(=O)CC(=O)CCn1[nH]c(=O)c(Cl)c(Cl)c1=O
inactive: HT-29 > 100 µM | UACC-257 > 100 µM | SK-MEL-28 > 100 µM | SK-MEL-5 > 100 µM | COLO 205 > 100 µM | OVCAR-4 > 100 µM | RXF 393 > 100 µM | KM12 > 100 µM | Malme-3M > 100 µM | HOP-92 > 100 µM | IGROV-1 > 100 µM | SW-620 > 100 µM | TK-10 > 100 µM | HCT-116 > 100 µM

O=C1C(=O)N(c2ccc(Cl)cc2)C(=O)C(=O)C1c1nc2ccccc2o1
inactive: HT-29 > 100 µM | UACC-257 > 100 µM | SK-MEL-28 > 100 µM | SK-MEL-5 > 100 µM | COLO 205 > 100 µM | OVCAR-4 > 100 µM | RXF 393 > 100 µM | KM12 > 100 µM | Malme-3M > 100 µM | HOP-92 > 100 µM | MOLT-4 > 100 µM | IGROV-1 > 100 µM | SW-620 > 100 µM | TK-10 > 100 µM | HCT-116 > 100 µM

N=S(c1ccccc1)c1ccccc1[N+](=O)[O-] (stereo unspecified)
inactive: SR 18.3 µM | HT-29 21.5 µM | UACC-257 18.1 µM | SK-MEL-5 15 µM | COLO 205 19.8 µM | OVCAR-4 14.8 µM | KM12 18.1 µM | Malme-3M 15.1 µM | MOLT-4 25.3 µM | IGROV-1 18.1 µM | SW-620 16.9 µM | TK-10 20.4 µM | HCT-116 17.8 µM

CC1OC(OP(=O)(OCc2ccccc2)OCc2ccccc2)C(OC(=O)c2ccccc2)C(OC(=O)c2ccccc2)C1I (stereo unspecified)
inactive: SR 17.5 µM | HT-29 42.9 µM | UACC-257 39.3 µM | SK-MEL-28 86.7 µM | SK-MEL-5 27.3 µM | COLO 205 30.2 µM | OVCAR-4 60.1 µM | RXF 393 12.7 µM | KM12 35 µM | Malme-3M 39.4 µM | MOLT-4 17.3 µM | IGROV-1 76 µM | SW-620 72.8 µM | TK-10 > 100 µM | HCT-116 28.1 µM

COc1ccc(S(=O)(=O)N[C@H](C(=O)O)c2ccccc2)cc1
inactive: HT-29 > 100 µM | UACC-257 > 100 µM | SK-MEL-28 > 100 µM | SK-MEL-5 > 100 µM | COLO 205 > 100 µM | OVCAR-4 > 100 µM | RXF 393 > 100 µM | KM12 > 100 µM | Malme-3M > 100 µM | MOLT-4 > 100 µM | IGROV-1 > 100 µM | SW-620 > 100 µM | TK-10 > 100 µM | HCT-116 > 100 µM

Cc1nc(N)c(-c2ccccc2)s1
inactive: HT-29 > 58.3 µM | UACC-257 53.7 µM | SK-MEL-28 > 100 µM | SK-MEL-5 43.5 µM | COLO 205 > 47 µM | OVCAR-4 > 100 µM | RXF 393 > 48.2 µM | KM12 > 74.6 µM | Malme-3M > 100 µM | HOP-92 > 100 µM | MOLT-4 > 76.7 µM | IGROV-1 > 78.2 µM | SW-620 18.3 µM | TK-10 > 100 µM | HCT-116 31.7 µM

CCCCCCN(CCCCCC)C(=O)Cc1c2n(c3ccccc13)Cc1ccccc1-2
inactive: SR 14.9 µM | HT-29 62.8 µM | UACC-257 49.7 µM | SK-MEL-28 > 100 µM | SK-MEL-5 41.4 µM | COLO 205 58.5 µM | OVCAR-4 79.8 µM | RXF 393 26.5 µM | KM12 42.1 µM | Malme-3M 88.9 µM | HOP-92 10.6 µM | MOLT-4 33.3 µM | SW-620 49.5 µM | TK-10 51.8 µM | HCT-116 29.6 µM

Cc1ccc2c(c1)-c1c3c(nn1-c1ccccc1)-c1ccccc1SC3O2 (stereo unspecified)
inactive: HT-29 > 100 µM | UACC-257 > 100 µM | SK-MEL-28 > 100 µM | COLO 205 > 100 µM | RXF 393 > 100 µM | KM12 > 100 µM | Malme-3M > 100 µM | HOP-92 > 100 µM | MOLT-4 > 100 µM | IGROV-1 > 100 µM | SW-620 > 100 µM | TK-10 > 100 µM | HCT-116 > 100 µM

CC(C)c1cc2c(O)c(c1)Cc1cc(C(C)C)cc(c1O)Cc1cc(C(C)C)cc(c1O)Cc1cc(C(C)C)cc(c1O)Cc1cc(C(C)C)cc(c1O)Cc1cc(C(C)C)cc(c1O)C2
inactive: HT-29 > 100 µM | UACC-257 > 100 µM | SK-MEL-28 > 100 µM | SK-MEL-5 > 100 µM | COLO 205 > 100 µM | OVCAR-4 > 100 µM | RXF 393 > 100 µM | KM12 > 100 µM | Malme-3M > 100 µM | HOP-92 > 100 µM | MOLT-4 > 100 µM | IGROV-1 > 100 µM | SW-620 > 100 µM | TK-10 > 100 µM | HCT-116 > 100 µM

c1ccc2c(c1)SC(=C1Sc3ccccc3S1)S2
inactive: HT-29 > 100 µM | SK-MEL-28 > 100 µM | COLO 205 > 100 µM | OVCAR-4 > 100 µM | RXF 393 > 100 µM | Malme-3M > 100 µM | HOP-92 61.7 µM | MOLT-4 > 100 µM | IGROV-1 > 100 µM | SW-620 > 100 µM | TK-10 > 100 µM

Cc1cc(C)nc(NS(=O)(=O)c2ccc(Nc3c4ccccc4nc4c(C(=O)N5CCN(CCO)CC5)ccc(Cl)c34)cc2)n1
inactive: HT-29 70 µM | UACC-257 51.5 µM | SK-MEL-28 > 100 µM | SK-MEL-5 42.8 µM | COLO 205 63 µM | OVCAR-4 > 100 µM | RXF 393 > 100 µM | KM12 > 100 µM | Malme-3M > 100 µM | HOP-92 > 100 µM | MOLT-4 25.9 µM | IGROV-1 > 100 µM | TK-10 > 100 µM | HCT-116 50.9 µM

N#CC1(Cc2ccc(N)cc2)c2ccccc2C=CN1C(=O)c1ccccc1 (stereo unspecified)
inactive: SR 24.8 µM | HT-29 36.1 µM | UACC-257 39.7 µM | SK-MEL-28 79.3 µM | SK-MEL-5 21.8 µM | COLO 205 27.3 µM | RXF 393 27.4 µM | KM12 47.5 µM | Malme-3M 24.4 µM | HOP-92 33.6 µM | MOLT-4 28.9 µM | IGROV-1 77.6 µM | SW-620 68.2 µM | TK-10 44.4 µM | HCT-116 54 µM

CCCN(CCC)C(=O)C(=O)c1c(N)[nH]n(-c2ccccc2)c1=O
inactive: HT-29 > 100 µM | UACC-257 45.1 µM | SK-MEL-5 > 100 µM | COLO 205 > 100 µM | OVCAR-4 > 100 µM | KM12 96.4 µM | Malme-3M > 100 µM | HOP-92 > 100 µM | MOLT-4 > 100 µM | IGROV-1 > 100 µM | SW-620 > 100 µM | TK-10 > 100 µM | HCT-116 > 100 µM
